Source: patent publication US11202789B2, “Method of treating glycogen storage disease” (Viking Therapeutics, Inc., priority 2016, dated 2021)
Entries after “also recorded” stand apart in the source; their conditions may differ.

Legend:
[1] = test system: male diet-induced obese (DIO) C57Bl/6 mice; assay: 2, 5 and 10 week study in mouse model of diet-induced obesity; format: in vivo
Description: Objectives: The objectives of this study were to evaluate the effects of 2, 5 and 10 weeks of Compound 2 treatment at doses of 10 and 30 mg/kg/day on total plasma cholesterol levels, blood glucose levels, and hepatic steatosis in a mouse model of diet-induced obesity.
Methods: Male C57Bl/6 mice (4 weeks old) were fed a high-fat diet (60% fat by kcal) for 88 days to induce obesity, hyperlipidemia, and mild hyperglycemia prior to initiation of the study. For the study, 3 groups of mice (n=24-28) were dosed daily by gavage with 10 or 30 mg/kg of Compound 2 or vehicle (0.1% carboxymethylcellulose) and maintained on the same high-fat diet. During treatment, body weight, total plasma cholesterol levels, and blood glucose levels of the animals were measured weekly. Subsets of animals (n=6-12; 30 mg/kg/day) were sacrificed prior to treatment and after 2, 5 and 10 weeks of treatment for analysis of liver weights, liver triglyceride levels and liver histology.

[2] = test system: male Zucker Diabetic fatty (ZDF) rats; assay: 4-week (28 days) efficacy and safety study in male Zucker Diabetic fatty (ZDF) rats; format: in vivo
Description: Objectives: The objective of the study was to evaluate the efficacy and safety of Compound 2 treatment for 4 weeks in male Zucker Diabetic fatty (ZDF) rats. Total plasma cholesterol, blood glucose levels, liver and muscle glycogen levels, and a plasma clinical chemistry were evaluated. Additionally, histological and biochemical assessments of hepatic steatosis were performed post-mortem. MB07875, a known human thyroid hormone receptor ligand, was included as a comparator in these studies.
Methods: Eight-week old male ZDF rats (n=5/group) were treated orally with Compound 2 or MB07875 for 28 days. The doses of Compound 2 [in 0.5% carboxymethylcellulose (CMC)] were 0.25, 0.5, 1, 2.5, 5, 15 and 50 mg/kg/day. The dose of MB07875 (in 0.5% CMC) was 0.2 mg/kg/day. Body weight was assessed just prior to treatment and at 24 hours following the last dose. Total plasma cholesterol and blood glucose were measured on a weekly basis. […] In addition, the liver was removed and weighed, and a portion freeze-clamped for glycogen and triglyceride analysis. Another portion was placed in 10% neutral buffered formalin for hematoxalin and eosin (H & E) staining. Finally, the heart was excised and weighed.

[3] = 10 and 30 mg/kg/day, following 2, 5 and 10 weeks, vs vehicle
[4] = Compound 2 0.25-50 mg/kg/day oral, 28 days

Cc1cc(OCP2(=O)OCCC(c3cccc(Cl)c3)O2)cc(C)c1Cc1ccc(O)c(C(C)C)c1 (stereo not shown) [Compound 2]
macrovesicular and microvesicular steatosis (liver histology) ([1]; 30 mg/kg/day, after 2, 5 and 10 weeks, vs vehicle): visually reduced
blood glucose levels lower ([1]; 10 and 30 mg/kg/day by gavage, most time points, vs vehicle): up to 25%
total plasma cholesterol levels decreased ([1]; 10 and 30 mg/kg/day by gavage, week 1 through end of study, vs vehicle): more than 50%
liver weights lower [1, 3]: ~50%
liver-to-body weight ratios lower [1, 3]: ~40%
body weight gain ([1]; 10 and 30 mg/kg/day, up to 10 weeks): tended to reduce
total liver triglyceride content (mg/liver) lower ([1]; 10 and 30 mg/kg/day, weeks 2, 5 and 10, vs vehicle): up to 60%
liver triglyceride concentrations (mg/g liver) ([1]; 10 or 30 mg/kg/day, any time point, vs vehicle): No significant changes
reduction of total plasma cholesterol ([2]; 1 mg/kg/day oral, day 28, vs vehicle): ~25%
total bilirubin increased ([2]; 2.5 mg/kg/day oral, day 28): ~86%
blood glucose levels decreased ([2]; 2.5 mg/kg/day oral, day 28, vs vehicle): ~47%
albumin-to-globulin ratio increased ([2]; 15 mg/kg/day oral, day 28): 21%
blood urea nitrogen decreased ([2]; 15 mg/kg/day oral, day 28): ~21%
liver glycogen levels reduced ([2]; 50 mg/kg/day oral, 28 days, dose-dependent): > 90%
albumin-to-globulin ratio increased ([2]; 50 mg/kg/day oral, day 28): 32%
alkaline phosphatase decrease ([2]; 50 mg/kg/day oral, day 28): ~42%
blood urea nitrogen decreased ([2]; 50 mg/kg/day oral, day 28): ~26%
calcium levels decreased ([2]; 50 mg/kg/day oral, day 28): ~5%
phosphorus levels increased ([2]; 50 mg/kg/day oral, day 28): ~27%
total bilirubin increased ([2]; 50 mg/kg/day oral, day 28): ~79%
total protein levels decreased ([2]; 50 mg/kg/day oral, day 28): ~10%
reduction of total plasma cholesterol ([2]; 50 mg/kg/day oral, day 28, vs vehicle): ~34%
effect on body weight [2, 4]: no significant effect
effect on heart weight [2, 4]: no significant effect
liver triglyceride content [2, 4]: no statistically significant decrease
muscle glycogen levels ([2]; Compound 2 0.25-50 mg/kg/day oral, 28 days, vs vehicle): unaffected; also recorded: no significant differences
blood glucose levels ([2]; Compound 2-treated groups (0.25-50 mg/kg/day), any time during the study): not increased
globulin decreased ([2]; doses of 5 mg/kg/day and above, oral, day 28): ≤ 25%
microvesicular steatosis, histological analysis of liver sections ([2]; doses ≥2.5 mg/kg/day oral, 28 days): decrease
decrease in liver glycogen levels relative to vehicle ([2]; highest dose evaluated (50 mg/kd/day), after 28 days of dosing): ~90%
cardiovascular function (heart rate, systolic and diastolic aortic pressure, LV dP/dt) ([2]; up to 50 mg/kg/day oral, 28 days): did not alter
